Consider 31 compounds from patent US11530219B2, “Ligands to cereblon (CRBN)” (DANA-FARBER CANCER INSTITUTE, INC., priority 2018, dated 2022).

“Also recorded” adds a separate entry of the source.

Chain of CRBN (Q96SW2 whole entry): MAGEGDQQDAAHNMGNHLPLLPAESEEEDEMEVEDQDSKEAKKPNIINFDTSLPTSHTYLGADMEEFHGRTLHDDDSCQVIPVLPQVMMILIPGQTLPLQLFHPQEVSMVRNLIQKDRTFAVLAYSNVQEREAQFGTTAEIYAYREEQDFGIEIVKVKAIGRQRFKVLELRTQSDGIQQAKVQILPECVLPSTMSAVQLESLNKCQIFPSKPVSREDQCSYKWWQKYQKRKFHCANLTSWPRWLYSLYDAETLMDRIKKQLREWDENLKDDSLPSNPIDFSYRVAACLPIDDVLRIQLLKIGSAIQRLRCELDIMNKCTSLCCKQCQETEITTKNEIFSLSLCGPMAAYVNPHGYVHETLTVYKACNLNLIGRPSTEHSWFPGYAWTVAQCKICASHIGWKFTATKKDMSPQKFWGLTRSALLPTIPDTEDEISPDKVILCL

The first assay concerns the target CRBN (Homo sapiens (Human), UniProt Q96SW2). Briefly: Cellular CRBN dBET6 displacement assay (BRD4BD2-GFP/mCherry reporter cells). It counts as cell-based. Conditions: Flip-In 293 cells stably expressing BRD4BD2-GFP, 100 nM dBET6, 5 hours. As for the experimental part: BRD4BD2 were subcloned into mammalian pcDNA5/FRT Vector (Ampicillin and Hygromycin B resistant) modified to contain MCS-eGFP-P2A-mCherry. […] Following a 2-3 passage cycle, FACS (FACSAria™ II, BD) was used to enrich for cells expressing eGFP and mCherry.
Signal from minimal 3000 events per well was acquired and the eGFP and mCherry florescence monitored. Data was analyzed using FlowJo® (FlowJo®, LCC). […] The eGFP protein abundance relative to mCherry was then quantified as a ten-fold amplified ratio for each individual cell using the formula: 10×eGFP/mCherry. The median of the ratio was then calculated per set, normalized to the median of the DMSO ratio.
This assay provided a readout of cellular CRBN binding impacted by the permeability of the molecule tested.
As to `O=C1CCC(N2Cc3c(Nc4ccnc(NCCCN5CCCC5=O)n4)cccc3C2=O)C(=O)N1` (stereo not shown) [Compound 22, 3-(1-oxo-4-((2-((3-(2-oxopyrrolidin-1-yl)propyl)amino)pyrimidin-4-yl)amino)isoindolin-2-yl)piperidine-2,6-dione], the “Cellular CRBN-BRD4 dBET6 displacement EC50” value is “inactive; also recorded: Not binding”.
As to `COc1cc(F)ccc1-c1nccc(NCC(=O)Nc2cccc3c2CN(C2CCC(=O)NC2=O)C3=O)n1` (stereo not shown) [Compound 34, N-(2-(2,6-dioxopiperidin-3-yl)-1-oxoisoindolin-4-yl)-2-((2-(4-fluoro-2-methoxyphenyl)pyrimidin-4-yl)amino)acetamide], the “Cellular CRBN-BRD4 dBET6 displacement EC50” value is “inactive; also recorded: Not binding”.
Regarding `NS(=O)(=O)c1ccc(Nc2nccc(Nc3cccc4c3CN(C3CCC(=O)NC3=O)C4=O)n2)cc1` (stereo not shown) [Compound 40, 4-((4-((2-(2,6-dioxopiperidin-3-yl)-1-oxoisoindolin-4-yl)amino)pyrimidin-2-yl)amino)benzenesulfonamide], the “Cellular CRBN-BRD4 dBET6 displacement EC50” value was “inactive; also recorded: Not binding”.

The same assay, now with this note: Flip-In 293 cells stably expressing BRD4BD2-GFP, 100 nM dBET6, 5 hours; read-out: Cellular CRBN-BRD4 dBET6 displacement EC50.
As to `COc1ccc(Nc2nccc(Nc3cccc4c3CN(C3CCC(=O)NC3=O)C4=O)n2)cc1` (stereo not shown) [Compound 18, 3-(4-((2-((4-methoxyphenyl)amino)pyrimidin-4-yl)amino)-1-oxoisoindolin-2-yl)piperidine-2,6-dione], the EC50 (usually the concentration at which the effect is half-maximal) was 2.69 µM.
On the same count and under the same terms, then `O=C1CCC(N2Cc3c(Nc4ccnc(Nc5ccc6c(c5)OCCO6)n4)cccc3C2=O)C(=O)N1` (stereo not shown) [Compound 19, 3-(4-((2-((2,3-dihydrobenzo[b][1,4]dioxin-6-yl)amino)pyrimidin-4-yl)amino)-1-oxoisoindolin-2-yl)piperidine-2,6-dione], with 3.63 µM; and `CC(=O)c1ccc(-c2nccc(Nc3cccc4c3CN(C3CCC(=O)NC3=O)C4=O)n2)cc1` (stereo not shown) [Compound 20, 3-(4-((2-(4-acetylphenyl)pyrimidin-4-yl)amino)-1-oxoisoindolin-2-yl)piperidine-2,6-dione], with 1.26 µM.
Consider `O=C1CCC(N2Cc3c(Nc4ccnc(Nc5ccccc5F)n4)cccc3C2=O)C(=O)N1` (stereo not shown) [Compound 21, 3-(4-((2-((2-fluorophenyl)amino)pyrimidin-4-yl)amino)-1-oxoisoindolin-2-yl)piperidine-2,6-dione], for which the EC50 was determined as 2.31 µM.
As for `O=C1CCC(N2Cc3c(Nc4ccnc(Nc5ccc6c(c5)CCC6)n4)cccc3C2=O)C(=O)N1` (stereo not shown) [Compound 24, 3-(4-((2-((2,3-dihydro-1H-inden-5-yl)amino)pyrimidin-4-yl)amino)-1-oxoisoindolin-2-yl)piperidine-2,6-dione], the EC50 was 1.35 µM.
On to `CN(c1ccccc1)c1nccc(Nc2cccc3c2CN(C2CCC(=O)NC2=O)C3=O)n1` (stereo not shown) [Compound 27, 3-(4-((2-(methyl(phenyl)amino)pyrimidin-4-yl)amino)-1-oxoisoindolin-2-yl)piperidine-2,6-dione], for which the EC50 is 1.25 µM.
On the same count and under the same terms, then `Cc1cc(C)c(Nc2nccc(Nc3cccc4c3CN(C3CCC(=O)NC3=O)C4=O)n2)c(C)c1` (stereo not shown) [Compound 28, 3-(4-((2-(mesitylamino)pyrimidin-4-yl)amino)-1-oxoisoindolin-2-yl)piperidine-2,6-dione], with 3.25 µM; and `O=C1CCC(N2Cc3c(Nc4ccnc(N5CCC[C@H]5CO)n4)cccc3C2=O)C(=O)N1` (stereo partly drawn) [Compound 29, 3-(4-((2-((S)-2-(hydroxymethyl)pyrrolidin-1-yl)pyrimidin-4-yl)amino)-1-oxoisoindolin-2-yl)piperidine-2,6-dione], with 8.14 µM; and `O=C1CCC(N2Cc3c(Nc4ccnc(N5CCC[C@@H]5CO)n4)cccc3C2=O)C(=O)N1` (stereo partly drawn) [Compound 30, 3-(4-((2-((R)-2-(hydroxymethyl)pyrrolidin-1-yl)pyrimidin-4-yl)amino)-1-oxoisoindolin-2-yl)piperidine-2,6-dione], with 8.15 µM.
On to `O=C1CCC(N2Cc3c(Nc4ccnc(-c5ccc(-c6ccccc6)cc5)n4)cccc3C2=O)C(=O)N1` (stereo not shown) [Compound 31, 3-(4-((2-([1,1′-biphenyl]-4-yl)pyrimidin-4-yl)amino)-1-oxoisoindolin-2-yl)piperidine-2,6-dione], for which the EC50 was 8.66 µM.
On the same count and under the same terms, with `COc1cccc(-c2nccc(Nc3cccc4c3CN(C3CCC(=O)NC3=O)C4=O)n2)c1` (stereo not shown) [Compound 32, 3-(4-((2-(3-methoxyphenyl)pyrimidin-4-yl)amino)-1-oxoisoindolin-2-yl)piperidine-2,6-dione] the figure was 4.16 µM; with `COc1cc(F)ccc1-c1nccc(Nc2cccc3c2CN(C2CCC(=O)NC2=O)C3=O)n1` (stereo not shown) [Compound 33, 3-(4-((2-(4-fluoro-2-methoxyphenyl)pyrimidin-4-yl)amino)-1-oxoisoindolin-2-yl)piperidine-2,6-dione], 2.59 µM; with `COc1ccc(-c2nccc(Nc3cccc4c3CN(C3CCC(=O)NC3=O)C4=O)n2)c(OC)c1` (stereo not shown) [Compound 35, 3-(4-((2-(2,4-dimethoxyphenyl)pyrimidin-4-yl)amino)-1-oxoisoindolin-2-yl)piperidine-2,6-dione], 1.86 µM.
Regarding `O=C1CCC(N2Cc3c(Nc4ccnc(-c5cc6ccccc6o5)n4)cccc3C2=O)C(=O)N1` (stereo not shown) [Compound 36, 3-(4-((2-(benzofuran-2-yl)pyrimidin-4-yl)amino)-1-oxoisoindolin-2-yl)piperidine-2,6-dione], the EC50 was determined as 2.24 µM.
Regarding `CC(C)C(CO)Nc1nccc(Nc2cccc3c2CN(C2CCC(=O)NC2=O)C3=O)n1` [Compound 37, 3-(4-((2-(((R)-1-hydroxy-3-methylbutan-2-yl)amino)pyrimidin-4-yl)amino)-1-oxoisoindolin-2-yl)piperidine-2,6-dione], the EC50 is 9.74 µM.
In the case of `COc1ccccc1Nc1nccc(Nc2cccc3c2CN(C2CCC(=O)NC2=O)C3=O)n1` (stereo not shown) [Compound 38, 3-(4-((2-((2-methoxyphenyl)amino)pyrimidin-4-yl)amino)-1-oxoisoindolin-2-yl)piperidine-2,6-dione], the EC50 is 2.6 µM.
The same measure, in the same setting: then `O=C1CCC(N2Cc3c(Nc4ccnc(Nc5ccc6c(c5)CCN6)n4)cccc3C2=O)C(=O)N1` (stereo not shown) [Compound 43, 3-(4-((2-(indolin-5-ylamino)pyrimidin-4-yl)amino)-1-oxoisoindolin-2-yl)piperidine-2,6-dione], with 25.3 µM; and `O=C1CCC(N2Cc3c(Nc4ccnc(NC56CC7CC(CC(C7)C5)C6)n4)cccc3C2=O)C(=O)N1` (stereo not shown) [Compound 44, 3-(4-((2-(((3s,5s,7s)-adamantan-1-yl)amino)pyrimidin-4-yl)amino)-1-oxoisoindolin-2-yl)piperidine-2,6-dione], with 0.913 µM; and `O=C1CCC(N2Cc3c(Nc4ccnc(Nc5ccc6ccccc6c5)n4)cccc3C2=O)C(=O)N1` (stereo not shown) [Compound 45, 3-(4-((2-(naphthalen-2-ylamino)pyrimidin-4-yl)amino)-1-oxoisoindolin-2-yl)piperidine-2,6-dione], with 2.06 µM.
On to `O=C1CCC(N2Cc3c(Nc4ccnc(Nc5ccc6c(c5)-c5ccccc5C6)n4)cccc3C2=O)C(=O)N1` (stereo not shown) [Compound 46, 3-(4-((2-((9H-fluoren-3-yl)amino)pyrimidin-4-yl)amino)-1-oxoisoindolin-2-yl)piperidine-2,6-dione], for which the EC50 came out at 1.13 µM.
`COc1ccccc1-c1nc(Nc2cccc3c2CN(C2CCC(=O)NC2=O)C3=O)c2nc[nH]c2n1` (stereo not shown) [Compound 47, 3-(4-((2-(2-methoxyphenyl)-9H-purin-6-yl)amino)-1-oxoisoindolin-2-yl)piperidine-2,6-dione]: the EC50 is 27.1 µM.
On the same count and under the same terms, then `O=C1CCC(N2Cc3c(Nc4nc(-c5ccc(-c6ccccc6)cc5)nc5[nH]cnc45)cccc3C2=O)C(=O)N1` (stereo not shown) [Compound 48, 3-(4-((2-([1,1′-biphenyl]-4-yl)-9H-purin-6-yl)amino)-1-oxoisoindolin-2-yl)piperidine-2,6-dione], with 12.4 µM.
For `COc1cc(F)ccc1-c1nc(Nc2cccc3c2CN(C2CCC(=O)NC2=O)C3=O)c2nc[nH]c2n1` (stereo not shown) [Compound 49, 3-(4-((2-(4-fluoro-2-methoxyphenyl)-9H-purin-6-yl)amino)-1-oxoisoindolin-2-yl)piperidine-2,6-dione], the EC50 amounted to 12.4 µM.
For `O=C1CCC(N2Cc3c(Nc4nc(-c5ccc(F)cc5)nc5[nH]cnc45)cccc3C2=O)C(=O)N1` (stereo not shown) [Compound 50, 3-(4-((2-(4-fluorophenyl)-9H-purin-6-yl)amino)-1-oxoisoindolin-2-yl)piperidine-2,6-dione], the EC50 amounted to 8.29 µM.
For the compound `COc1cc(OC)cc(-c2nc(Nc3cccc4c3CN(C3CCC(=O)NC3=O)C4=O)c3nc[nH]c3n2)c1` (stereo not shown) [Compound 51, 3-(4-((2-(3,5-dimethoxyphenyl)-9H-purin-6-yl)amino)-1-oxoisoindolin-2-yl)piperidine-2,6-dione], the EC50 turned out to be 6.83 µM.

The same assay, now with this note: unit printed as 'M' in the text (Table 1 gives μM); 100 nM dBET6, 5 hours; read-out: Cellular CRBN engagement EC50.
`O=C1CCC(N2Cc3c(Nc4ccnc(N5CCN(c6cccc(C(F)(F)F)c6)CC5)n4)cccc3C2=O)C(=O)N1` (stereo not shown) [Compound 23, 3-(1-oxo-4-((2-(4-(3-(trifluoromethyl)phenyl)piperazin-1-yl)pyrimidin-4-yl)amino)isoindolin-2-yl)piperidine-2,6-dione]: the EC50 stood at 0.66 µM.
Regarding `CCN(Cc1ccccc1)c1nccc(Nc2cccc3c2CN(C2CCC(=O)NC2=O)C3=O)n1` (stereo not shown) [Compound 26, 3-(4-((2-(benzyl(ethyl)amino)pyrimidin-4-yl)amino)-1-oxoisoindolin-2-yl)piperidine-2,6-dione], the EC50 amounted to 0.67 µM.
Take `O=C1CCC(N2Cc3c(Nc4ccnc(-c5ccc(F)cc5)n4)cccc3C2=O)C(=O)N1` (stereo not shown) [Compound 39, 3-(4-((2-(4-fluorophenyl)pyrimidin-4-yl)amino)-1-oxoisoindolin-2-yl)piperidine-2,6-dione]: the EC50 is 0.742 µM.
